Assay results taken from patent US10695321B2, “Use of glycopyrrolate for treating tachycardia” (Heptares Therapeutics Limited, priority 2011, dated 2020).

Test system: subjects with COPD
Experiment: Phase IIa placebo-controlled crossover dose-ranging study, heart rate (vital signs) after single inhaled dose
Format: in vivo, human
Settings: for Adjusted Mean for Average Change in Heart Rate from Test day Baseline: ANCOVA
Description: The study was a Phase IIa, multi-centre, randomised, double-blind, placebo-controlled, crossover, dose-ranging study using four dose levels of glycopyrronium bromide in subjects with COPD. A total of 40 subjects were required to complete the study.
Subjects were randomised to receive a single inhaled dose of 20, 125, 250 and 400 μg of glycopyrronium bromide in ascending order, with a placebo dose randomised into the sequence over 5 study visits. Subjects were randomised to receive treatment on Study Day 1 prior to dosing. All doses, including placebo, were administered using the Miat Monohaler.
The Treatment period then consisted of five study visits (separated by a 5-14-day wash-out period), during which subjects were dosed with a single inhaled dose of glycopyrronium bromide using a Miat Monohaler, in ascending order (20, 125, 250 or 400 μg). A placebo was randomly administered (using a Miat Monohaler) at one of the study visits; subsequent visits continued with the next highest dose of glycopyrronium bromide to that which was administered prior to the placebo.
All subjects were scheduled to be dosed between 08:00 and 10:00 am. For individual subjects, dosing was at the same time of day (±30 minutes). At each dosing visit, subjects received a single dose of glycopyrronium bromide or placebo administered via Miat Monohaler. Each different dose (20, 125, 250 or 400 μg) was contained in one capsule. An appropriate number of Miat Monohalers to conduct the study was also supplied to the site. A new Miat Monohaler was used to administer each dose at each visit.
copyrronium bromide was presented in size 3, white opaque, hard, gelatin capsules packaged in aluminium pouches. The capsules were presented in four dose strengths containing 20, 125, 250, or 400 μg glycopyrronium bromide. In addition to glycopyrronium bromide, excipient present in the capsule formulation consisted of the PowderHale^TM formulation of lactose and magnesium stearate.
All vital signs were measured on each study day, including heart rate (with the subject semi-supine for 5 minutes prior to measurement); blood pressure; respiratory rate and temperature were measured at each visit and before receiving study medication (pre-treatment), if applicable. Blood pressure and heart rate were also measured at 45, 90 minutes and 5, 10, 20 and 30 hours post-treatment on study days.
The statistical analyses were to be reported using summary tables and data listings. Statistical tests for the evaluation were to be performed at the 0.05 significance level using a two-sided test.
All analyses and tabulations were to be performed using SASS Version 6.12 on a PC platform. Continuous variables were to be summarised with sample size (n), mean, standard deviation (SD), minimum, median, and maximum. […] The mean was to have one extra decimal place and the standard deviation was to have two extra decimal places. Categorical variables were to be summarised with number and percentage of subjects.

[1] = 20 μg single inhaled dose, 45 mins post-dose
[2] = 20 μg single inhaled dose, 90 mins post-dose
[3] = 20 μg single inhaled dose, 5 hrs post-dose
[4] = 20 μg single inhaled dose, 10 hrs post-dose
[5] = 20 μg single inhaled dose, 20 hrs post-dose
[6] = 20 μg single inhaled dose, 30 hrs post-dose
[7] = 20 μg single inhaled dose, pre-dose to 45 mins post-dose
[8] = 20 μg single inhaled dose, pre-dose to 90 mins post-dose
[9] = 20 μg single inhaled dose, pre-dose to 5 hours post-dose
[10] = 20 μg single inhaled dose, pre-dose to 10 hours post-dose
[11] = 20 μg single inhaled dose, pre-dose to 20 hours post-dose
[12] = 125 μg single inhaled dose, 45 mins post-dose
[13] = 125 μg single inhaled dose, 90 mins post-dose
[14] = 125 μg single inhaled dose, 5 hrs post-dose
[15] = 125 μg single inhaled dose, 10 hrs post-dose
[16] = 125 μg single inhaled dose, 20 hrs post-dose
[17] = 125 μg single inhaled dose, 30 hrs post-dose
[18] = 125 μg single inhaled dose, pre-dose to 45 mins post-dose
[19] = 125 μg single inhaled dose, pre-dose to 90 mins post-dose
[20] = 125 μg single inhaled dose, pre-dose to 5 hours post-dose
[21] = 125 μg single inhaled dose, pre-dose to 10 hours post-dose
[22] = 125 μg single inhaled dose, pre-dose to 20 hours post-dose
[23] = 125 μg single inhaled dose, pre-dose to 30 hours post-dose

C[N+]1(C)CCC(OC(=O)C(O)(c2ccccc2)C2CCCC2)C1 (stereo not drawn) [glycopyrronium bromide]
Heart Rate Mean [1]: 70.3 bpm
Heart Rate Median [1]: 68.0 bpm
Heart Rate Mean [2]: 72.5 bpm
Heart Rate Median [2]: 71.0 bpm
Heart Rate Mean [3]: 72.8 bpm
Heart Rate Median [3]: 74.0 bpm
Heart Rate Mean [4]: 69.1 bpm
Heart Rate Median [4]: 68.0 bpm
Heart Rate Mean [5]: 68.8 bpm
Heart Rate Median [5]: 69.5 bpm
Heart Rate Mean [6]: 69.8 bpm
Heart Rate Median [6]: 70.0 bpm
Heart Rate Change from Test day Baseline, Mean [7]: −2.5 bpm
Heart Rate Change from Test day Baseline, Median [7]: −2.0 bpm
Heart Rate Change from Test day Baseline, Mean [8]: −0.2 bpm
Heart Rate Change from Test day Baseline, Median [8]: 0.0 bpm
Heart Rate Change from Test day Baseline, Mean [9]: −0.0 bpm
Heart Rate Change from Test day Baseline, Median [9]: 1.0 bpm
Heart Rate Change from Test day Baseline, Mean [10]: −3.4 bpm
Heart Rate Change from Test day Baseline, Median [10]: −1.0 bpm
Heart Rate Change from Test day Baseline, Mean [11]: −3.6 bpm
Heart Rate Change from Test day Baseline, Median [11]: −3.0 bpm
Heart Rate Change from Test day Baseline, Mean (20 μg single inhaled dose, pre-dose to 30 hours post-dose): −2.7 bpm
Adjusted Mean for Average Change in Heart Rate from Test day Baseline (20 μg, to 45 mins post-dose): −2.323 bpm
Dose v Placebo Difference, adjusted mean change in Heart Rate from Test day Baseline (20 μg, to 45 mins post-dose, p-value 0.997): 0.005 bpm
Adjusted Mean for Average Change in Heart Rate from Test day Baseline (20 μg, to 90 mins post-dose): 0.033 bpm
Dose v Placebo Difference, adjusted mean change in Heart Rate from Test day Baseline (20 μg, to 90 mins post-dose, p-value 0.489): −1.239 bpm
Adjusted Mean for Average Change in Heart Rate from Test day Baseline (20 μg, to 5 hours post-dose): 1.933 bpm
Dose v Placebo Difference, adjusted mean change in Heart Rate from Test day Baseline (20 μg, to 5 hours post-dose, p-value 0.945): −0.114 bpm
Adjusted Mean for Average Change in Heart Rate from Test day Baseline (20 μg, to 10 hours post-dose): −0.126 bpm
Dose v Placebo Difference, adjusted mean change in Heart Rate from Test day Baseline (20 μg, to 10 hours post-dose, p-value 0.349): 1.698 bpm
Adjusted Mean for Average Change in Heart Rate from Test day Baseline (20 μg, to 20 hours post-dose): −4.339 bpm
Dose v Placebo Difference, adjusted mean change in Heart Rate from Test day Baseline (20 μg, to 20 hours post-dose, p-value 0.068): −2.872 bpm
Adjusted Mean for Average Change in Heart Rate from Test day Baseline (20 μg, to 30 hours post-dose): −0.880 bpm
Dose v Placebo Difference, adjusted mean change in Heart Rate from Test day Baseline (20 μg, to 30 hours post-dose, p-value 0.379): −1.499 bpm
Heart Rate Mean [12]: 65.5 bpm
Heart Rate Median [12]: 63.5 bpm
Heart Rate Mean [13]: 67.6 bpm
Heart Rate Median [13]: 69.0 bpm
Heart Rate Mean [14]: 70.6 bpm
Heart Rate Median [14]: 73.0 bpm
Heart Rate Mean [15]: 67.0 bpm
Heart Rate Median [15]: 67.0 bpm
Heart Rate Mean [16]: 66.4 bpm
Heart Rate Median [16]: 66.0 bpm
Heart Rate Mean [17]: 72.1 bpm
Heart Rate Median [17]: 72.0 bpm
Heart Rate Change from Test day Baseline, Mean [18]: −3.8 bpm
Heart Rate Change from Test day Baseline, Median [18]: −4.0 bpm
Heart Rate Change from Test day Baseline, Mean [19]: −1.8 bpm
Heart Rate Change from Test day Baseline, Median [19]: −2.0 bpm
Heart Rate Change from Test day Baseline, Mean [20]: 1.2 bpm
Heart Rate Change from Test day Baseline, Median [20]: 0.5 bpm
Heart Rate Change from Test day Baseline, Mean [21]: −2.1 bpm
Heart Rate Change from Test day Baseline, Median [21]: −3.0 bpm
Heart Rate Change from Test day Baseline, Mean [22]: −2.5 bpm
Heart Rate Change from Test day Baseline, Median [22]: −1.5 bpm
Heart Rate Change from Test day Baseline, Mean [23]: 2.8 bpm
Heart Rate Change from Test day Baseline, Median [23]: 1.0 bpm
Adjusted Mean for Average Change in Heart Rate from Test day Baseline (125 μg, to 45 mins post-dose): −2.854 bpm
Dose v Placebo Difference, adjusted mean change in Heart Rate from Test day Baseline (125 μg, to 45 mins post-dose, p-value 0.712): −0.526 bpm
Adjusted Mean for Average Change in Heart Rate from Test day Baseline (125 μg, to 90 mins post-dose): −0.650 bpm
Dose v Placebo Difference, adjusted mean change in Heart Rate from Test day Baseline (125 μg, to 90 mins post-dose, p-value 0.240): −1.921 bpm
Adjusted Mean for Average Change in Heart Rate from Test day Baseline (125 μg, to 5 hours post-dose): 2.382 bpm
Dose v Placebo Difference, adjusted mean change in Heart Rate from Test day Baseline (125 μg, to 5 hours post-dose, p-value 0.826): 0.335 bpm
Adjusted Mean for Average Change in Heart Rate from Test day Baseline (125 μg, to 10 hours post-dose): −0.186 bpm
Dose v Placebo Difference, adjusted mean change in Heart Rate from Test day Baseline (125 μg, to 10 hours post-dose, p-value 0.339): 1.638 bpm
Adjusted Mean for Average Change in Heart Rate from Test day Baseline (125 μg, to 20 hours post-dose): −1.590 bpm
Dose v Placebo Difference, adjusted mean change in Heart Rate from Test day Baseline (125 μg, to 20 hours post-dose, p-value 0.932): −0.123 bpm
Adjusted Mean for Average Change in Heart Rate from Test day Baseline (125 μg, to 30 hours post-dose): 2.796 bpm
Dose v Placebo Difference, adjusted mean change in Heart Rate from Test day Baseline (125 μg, to 30 hours post-dose, p-value 0.168): 2.177 bpm
Heart Rate Mean (250 μg single inhaled dose, 45 mins post-dose): 65.1 bpm
